Results taken from US9877479B2, “Pamoic acid blocks ethelyne signaling” (THE REGENTS OF THE UNIVERSITY OF CALIFORNIA, priority 2010, dated 2018).
Entries after “also recorded” stand apart in the source; their conditions may differ.

What was measured:
Type in all cases: in vivo
[1] = system: seedling roots; assay: Root growth in presence of a highly inhibitory amount of NAA, with or without PA; details: PA added
Description: (§1) This is not a toxicity issue in due to the data in panels 10B and C. In panel 10B, seedlings were grown in the absence or presence of a highly inhibitory amount of NAA. A subset of these seedlings also had PA added to them. […] Gravitropism is a well know auxin dependent phenomenon.

[2] = system: genes that require both ethylene and auxin for induction; assay: Expression of genes dependent on auxin and ethylene in presence of PA; details: in the presence of PA (panel 12B)
Description: (§2) Since PA reduces ethylene response, it was natural to assume that it would also reduce ethylene mediated gene expression. […] PA was then tested on gene expression that was dependent on auxin and ethylene.

[3] = system: Wild type Arabidopsis seedlings; assay: Ethylene dependent seedling triple response, dark, saturating ethylene
Description: (§3) FIG. 5. Wild type Arabidopsis seedlings were grown for four days in the dark in the presence of saturating ethylene (100 ppm) and either 0 or 10 μM pamoic acid after which it was determined whether aspects of the ethylene dependent seedling triple response were affected.
FIG. 6. Wild type Arabidopsis seedlings were grown for four days in the dark in the presence of either the ethylene perception inhibitor AgNO3 or saturating ethylene (100 ppm) along with either 0 or 10 μM pamoic acid. Following this, hypocotyl length and number of seedlings presenting an ethylene dependent apical hook in the presence of saturating ethylene (shown as percentages) were determined (n=40).
FIG. 7. Wild type Arabidopsis seedlings were grown for four days in the dark in the presence of either air or saturating ethylene (100 ppm) along with either 0 or 10 μM pamoic acid. Following this, root length was measured for each treatment (n=40).
(§4) This is a dark phenotype that results in severe stunting of shoot and root growth along with a pronounced apical hook in the presence of saturating ethylene. This phenotype is ultimately conditioned by auxin acting through ethylene. […] FIG. 5 represents a mutant that has constitutive ethylene signaling (ctr1) and FIGS. 6 and 7 represents wild type treated with ethylene+/−PA.

[4] = system: ethylene inducible genes; assay: Ethylene inducible gene expression in presence of PA; details: ethylene treatment in the presence of PA (panel 12A); listed as PA
Description: as §2

[5] = system: wild type roots; assay: Gravitropic response of seedlings
Description: as §1

[6] = system: auxin inducible reporter gene called DR5; assay: Auxin inducible reporter gene DR5 expression; details: auxin treatment; PA especially at high levels
Description: The effects of auxin on an auxin inducible reporter gene called DR5 were measured. Normally, auxin treatment results in increased expression of DR5, which is evidenced by blue color in the roots and leaf tip.

[7] = system: Flowers of Dianthus caryophyllus (carnation); assay: Ethylene dependent flower senescence of cut carnations; details: cut flowers in water supplemented with 50 μM pamoic acid, observed to Day 8
Description: FIG. 8. Flowers of Dianthus caryophyllus (carnation) were harvested and immediately placed cut side down into either water or water supplemented with 50 μM pamoic acid.

[8] = system: seedling roots; assay: Growth of seedlings on increasing amounts of PA (root growth)
Description: as §1

[9] = system: Mutant Arabidopsis seedlings (ctrl-3); assay: Constitutive ethylene response phenotype of mutant seedlings
Description: FIG. 3. Mutant Arabidopsis seedlings (ctrl-3) that have a constitutive ethylene response phenotype, including severe root shortening dependent on unregulated ethylene signaling, were grown in the light in nutrient medium supplemented with either 0 or 10 μM pamoic acid for 7 days. Following this, roots of each were measured (n=40).
as §3, §4

[10] = wild type, four days in the dark, saturating ethylene (100 ppm), 10 μM pamoic acid

| SMILES | length of PA+NAA treated roots relative to NAA treated roots [1] | expression of two genes that require both ethylene and auxin for induction [2] | ethylene response phenomena including apical hook formation and root growth inhibition ([3]; wild type treated with ethylene +/- PA (FIGS. 6 and 7)) | ethylene dependent apical hook [3, 10] | root length compared to seedlings not treated with pamoic acid [3, 10] | expression of ethylene inducible genes following ethylene treatment [4] | gravitropism of roots and shoots ([5]; in the presence of PA) | gravitropic response of seedling roots ([5]; wild type roots treated with PA) | DR5 expression [6] | petal inrolling or petal senescence [7] | root growth at high concentrations of PA ([8]; high concentrations of PA) | root length with increasing amounts of PA ([8]; increasing amounts of PA) | constitutive ethylene response of ctrl-3 mutants ([9]; ctrl-3 mutants) | ethylene response phenomena including apical hook formation and root growth inhibition ([9]; mutant with constitutive ethylene signaling (ctr1), FIG. 5) |
| --- | --- | --- | --- | --- | --- | --- | --- | --- | --- | --- | --- | --- | --- | --- |
| O=C(O)c1cc2ccccc2c(Cc2c(O)c(C(=O)O)cc3ccccc23)c1O [pamoic acid, Pamoic acid] | nearly double the length of NAA treated roots | extremely reduced | strictly blocks | elimination of the ethylene dependent apical hook | significant increase in root length | also upregulated in the presence of PA; also recorded: normally upregulated following ethylene treatment even in the presence of PA | both roots and shoots become agravitropic | completely destroys the gravitropic response | reduced or eliminated DR5 expression | no evidence of petal inrolling or petal senescence even after Day 8 | almost completely block root growth | progressively shorter roots | reversing the constitutive ethylene response | strictly blocks |
| CC(C)(Oc1ccc(Cl)cc1)C(=O)O [CPIB, reference compound] | – | – | – | – | – | – | – | – | eliminates DR5 expression | – | – | – | – | – |
